From patent publication US9695155B2, “Herbicidal substituted pyrimidinyloxy benzene compounds” (E. I. DU PONT DE NEMOURS AND COMPANY, priority 2013, dated 2017)

Experiments:
barnyardgrass [1] = test: Test B flooded paddy test; assay type: in vivo, Echinochloa crus-galli; conditions: Echinochloa crus-galli; Flood, 250 g ai/ha; 0 to 100 scale where 0 is no effect and 100 is complete control; read-out: Plant response rating, Barnyardgrass
Method in brief: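 Flooded to 3 cm at the 2-leaf stage, pots received compound through the paddy water and were kept at that depth under greenhouse conditions. After 13–15 days, effect was rated by eye relative to controls, 0 = none and 100 = complete control.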

morningglory = test: Test C preemergence; assay type: in vivo, Ipomoea coccinea; conditions: Ipomoea, pre-emergence
Method in brief: (§1)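 Whole-plant greenhouse test with surfactant-containing solvent formulation, applied preemergence to sown loam–sand pots or postemergence to 2–18 cm plants. Scored by eye 13 to 15 days on, 0–100 scale.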

giant foxtail = test: Test A preemergence; assay type: in vivo, Setaria faberii
Method in brief: (§2)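 Visual injury scored 0–100 (100 = complete control) against untreated controls about 10 days after treatment in a greenhouse. Test chemicals, formulated with surfactant in non-phytotoxic solvent, were sprayed on soil preemergence or on 2-10 cm, one- to two-leaf plants postemergence.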

barnyardgrass [2] = test: Test A postemergence; assay type: in vivo, Echinochloa crus-galli; conditions: Echinochloa crus-galli, post-emergence, 240 h, 0 to 100 scale where 0 is no effect and 100 is complete control
Method in brief: as §2

johnsongrass = test: Test C postemergence; assay type: in vivo, Sorghum halepense; conditions: Sorghum halepense, post-emergence
Method in brief: as §1

pigweed = test: Test A postemergence; assay type: in vivo, Amaranthus retroflexus; conditions: Amaranthus retroflexus, post-emergence, 0 to 100 scale where 0 is no effect and 100 is complete control
Method in brief: as §2

oilseed rape = test: Test C preemergence; assay type: in vivo, Brassica napus; conditions: Brassica napus, pre-emergence
Method in brief: as §1

velvetleaf = test: Test C postemergence; assay type: in vivo, Abutilon theophrasti
Method in brief: as §1

soybean [3] = test: Test C postemergence; assay type: in vivo, Glycine max
Method in brief: as §1

barnyardgrass [4] = test: Test C preemergence; assay type: in vivo, Echinochloa crus-galli; conditions: Echinochloa crus-galli, pre-emergence
Method in brief: as §1

waterhemp = test: Test C preemergence; assay type: in vivo, Amaranthus rudis; conditions: Amaranthus tuberculatus, pre-emergence
Method in brief: as §1

soybean [5] = test: Test C preemergence; assay type: in vivo, Glycine max; conditions: Glycine max, pre-emergence
Method in brief: as §1

galium [6] = test: Test C preemergence; assay type: in vivo, Galium aparine; conditions: Galium, pre-emergence
Method in brief: as §1

galium [7] = test: Test C postemergence; assay type: in vivo, Galium aparine; conditions: Galium, post-emergence
Method in brief: as §1

chickweed = test: Test C postemergence; assay type: in vivo, Stellaria media; conditions: Stellaria media, post-emergence
Method in brief: as §1

[8] = 31 g ai/ha, postemergence, visual rating, scale 0 to 100 (0 no effect, 100 complete control), 13 to 15 days

Q: For `FC(F)c1cccc(Oc2ncc(Cl)cn2)c1-n1cc(Br)cn1` [Compound 194, 2-[2-(4-bromo-1H-pyrazol-1-yl)-3-(difluoromethyl)phenoxy]-5-chloropyrimidine], which pest or weed control at 250 g/ha (barnyardgrass [1]) is on record?
A: The pest or weed control at 250 g/ha was 0%.

Q: And the pest or weed control at 125 g/ha (morningglory; 125 g ai/ha, preemergence, scale 0 (no effect) to 100 (complete control), read-out: Morningglory plant response rating)?
A: The pest or weed control at 125 g/ha was 95%.

Q: What about the pest or weed control at 250 g/ha (morningglory; 250 g ai/ha, preemergence, scale 0 (no effect) to 100 (complete control), read-out: Morningglory plant response rating) of the same compound?
A: The pest or weed control at 250 g/ha was 98%.

Q: What about the pest or weed control at 62 g/ha (morningglory; Preemergence, 62 g ai/ha, scale 0 to 100, 0 no effect, 100 complete control, read-out: Plant response rating, Morningglory) of the same compound?
A: The pest or weed control at 62 g/ha was 0%.

Q: And the “Foxtail, Giant plant response rating (0 to 100 scale)” value (giant foxtail; 125 g ai/ha)?
A: Its value is 100.

Q: What about the pest or weed control at 500 g/ha (giant foxtail; Setaria faberi, pre-emergence, 240 h, 500 g ai/ha, 0 to 100 scale where 0 is no effect and 100 is complete control, read-out: Foxtail, Giant plant response rating) of the same compound?
A: Its pest or weed control at 500 g/ha is 100%.

Q: What about the pest or weed control at 125 g/ha (barnyardgrass [2]; 125 g ai/ha, read-out: Barnyardgrass plant response rating) of the same compound?
A: Its pest or weed control at 125 g/ha is 80%.

Q: What about the pest or weed control at 500 g/ha (barnyardgrass [2]; 500 g ai/ha, read-out: Plant response rating, Barnyardgrass) of the same compound?
A: Its pest or weed control at 500 g/ha is 90%.

Q: And the pest or weed control at 125 g/ha (johnsongrass; 125 g ai/ha, postemergence, visual rating, scale 0 to 100 (0 no effect, 100 complete control), read-out: Plant response rating, Johnsongrass)?
A: Its pest or weed control at 125 g/ha is 25%.

Q: And the pest or weed control at 250 g/ha (johnsongrass; 250 g ai/ha, postemergence, read-out: Plant response rating (0 to 100), Johnsongrass)?
A: Its pest or weed control at 250 g/ha is 35%.

Q: What about the pest or weed control at 62 g/ha (johnsongrass; Postemergence, 62 g ai/ha, scale 0 to 100 (0 no effect, 100 complete control), 13 to 15 days, read-out: Plant response rating, Johnsongrass) of the same compound?
A: Its pest or weed control at 62 g/ha is 5%.

Q: What about the pest or weed control at 500 g/ha (pigweed; 500 g ai/ha, read-out: Plant response rating, Pigweed) of the same compound?
A: The pest or weed control at 500 g/ha was 100%.

Q: And the pest or weed control at 125 g/ha (pigweed; 240 h, 125 g ai/ha, read-out: Pigweed plant response rating)?
A: Its pest or weed control at 125 g/ha is 100%.

Q: And the plant injury at 125 g/ha (oilseed rape; 125 g ai/ha, preemergence, scale 0 (no effect) to 100 (complete control), read-out: Oilseed Rape plant response rating)?
A: The plant injury at 125 g/ha was 90%.

Q: And the plant injury at 250 g/ha (oilseed rape; 250 g ai/ha, preemergence, scale 0 (no effect) to 100 (complete control), read-out: Oilseed Rape plant response rating)?
A: The plant injury at 250 g/ha was 100%.

Q: What about the plant injury at 62 g/ha (oilseed rape; Preemergence, 62 g ai/ha, scale 0 to 100, 0 no effect, 100 complete control, read-out: Plant response rating, Oilseed Rape) of the same compound?
A: Its plant injury at 62 g/ha is 30%.

Q: And the “Velvetleaf plant response rating” value (velvetleaf; [8])?
A: The value was 40.

Q: And the pest or weed control at 125 g/ha (velvetleaf; Abutilon theophrasti, post-emergence, 125 g ai/ha, postemergence, visual rating, scale 0 to 100 (0 no effect, 100 complete control), read-out: Plant response rating, Velvetleaf)?
A: Its pest or weed control at 125 g/ha is 70%.

Q: And the pest or weed control at 250 g/ha (velvetleaf; Abutilon theophrasti, post-emergence, 250 g ai/ha, postemergence, read-out: Plant response rating (0 to 100), Velvetleaf)?
A: Its pest or weed control at 250 g/ha is 75%.

Q: And the pest or weed control at 62 g/ha (velvetleaf; Abutilon theophrasti, post-emergence, Postemergence, 62 g ai/ha, scale 0 to 100 (0 no effect, 100 complete control), 13 to 15 days, read-out: Plant response rating, Velvetleaf)?
A: Its pest or weed control at 62 g/ha is 45%.

Q: And the “Soybean plant response rating” value (soybean [3]; [8])?
A: The value was 30.

Q: What about the Soybean plant response rating (crop injury, 0-100 scale) at 125 g/ha (soybean [3]; Glycine max, post-emergence, 125 g ai/ha, postemergence, visual rating, scale 0 to 100 (0 no effect, 100 complete control), read-out: Plant response rating, Soybean) of the same compound?
A: The Soybean plant response rating (crop injury, 0-100 scale) at 125 g/ha was 75%.

Q: And the Soybean plant response rating (crop injury, 0-100 scale) at 250 g/ha (soybean [3]; Glycine max, post-emergence, 250 g ai/ha, postemergence)?
A: The Soybean plant response rating (crop injury, 0-100 scale) at 250 g/ha was 85%.

Q: What about the Soybean plant response rating (crop injury, 0-100 scale) at 62 g/ha (soybean [3]; Glycine max, post-emergence, Postemergence, 62 g ai/ha, scale 0 to 100 (0 no effect, 100 complete control), 13 to 15 days) of the same compound?
A: The Soybean plant response rating (crop injury, 0-100 scale) at 62 g/ha was 50%.

Q: What about the pest or weed control at 125 g/ha (barnyardgrass [4]; 125 g ai/ha, preemergence, scale 0 (no effect) to 100 (complete control), read-out: Barnyardgrass plant response rating) of the same compound?
A: The pest or weed control at 125 g/ha was 100%.

Q: And the pest or weed control at 250 g/ha (barnyardgrass [4]; 250 g ai/ha, preemergence, scale 0 (no effect) to 100 (complete control), read-out: Barnyardgrass plant response rating)?
A: The pest or weed control at 250 g/ha was 100%.

Q: What about the pest or weed control at 62 g/ha (barnyardgrass [4]; Preemergence, 62 g ai/ha, scale 0 to 100, 0 no effect, 100 complete control, read-out: Plant response rating, Barnyardgrass) of the same compound?
A: Its pest or weed control at 62 g/ha is 85%.

Q: What about the pest or weed control at 125 g/ha (waterhemp; 125 g ai/ha, preemergence, scale 0 (no effect) to 100 (complete control), read-out: Waterhemp plant response rating) of the same compound?
A: The pest or weed control at 125 g/ha was 100%.

Q: What about the pest or weed control at 250 g/ha (waterhemp; 250 g ai/ha, preemergence, scale 0 (no effect) to 100 (complete control), read-out: Waterhemp plant response rating) of the same compound?
A: Its pest or weed control at 250 g/ha is 100%.

Q: What about the pest or weed control at 62 g/ha (waterhemp; Preemergence, 62 g ai/ha, scale 0 to 100, 0 no effect, 100 complete control, read-out: Plant response rating, Waterhemp) of the same compound?
A: Its pest or weed control at 62 g/ha is 100%.

Q: What about the plant injury at 125 g/ha (soybean [5]; 125 g ai/ha, preemergence, scale 0 (no effect) to 100 (complete control), read-out: Soybean plant response rating) of the same compound?
A: Its plant injury at 125 g/ha is 25%.

Q: What about the plant injury at 250 g/ha (soybean [5]; 250 g ai/ha, preemergence, scale 0 (no effect) to 100 (complete control), read-out: Soybean plant response rating) of the same compound?
A: The plant injury at 250 g/ha was 45%.

Q: And the plant injury at 62 g/ha (soybean [5]; Preemergence, 62 g ai/ha, scale 0 to 100, 0 no effect, 100 complete control, read-out: Plant response rating, Soybean)?
A: Its plant injury at 62 g/ha is 20%.

Q: What about the pest or weed control at 125 g/ha (galium [6]; 125 g ai/ha, preemergence, scale 0 (no effect) to 100 (complete control), read-out: Galium plant response rating) of the same compound?
A: Its pest or weed control at 125 g/ha is 90%.

Q: And the pest or weed control at 250 g/ha (galium [6]; 250 g ai/ha, preemergence, scale 0 (no effect) to 100 (complete control), read-out: Galium plant response rating)?
A: Its pest or weed control at 250 g/ha is 100%.

Q: What about the pest or weed control at 62 g/ha (galium [6]; Preemergence, 62 g ai/ha, scale 0 to 100, 0 no effect, 100 complete control, read-out: Plant response rating, Galium) of the same compound?
A: The pest or weed control at 62 g/ha was 90%.

Q: And the pest or weed control at 31 g/ha (galium [7]; 31 g ai/ha, postemergence, visual rating, scale 0 to 100 (0 no effect, 100 complete control), 13 to 15 days, read-out: Galium plant response rating)?
A: Its pest or weed control at 31 g/ha is 60%.

Q: What about the pest or weed control at 125 g/ha (galium [7]; 125 g ai/ha, postemergence, visual rating, scale 0 to 100 (0 no effect, 100 complete control), read-out: Plant response rating, Galium) of the same compound?
A: The pest or weed control at 125 g/ha was 85%.

Q: What about the pest or weed control at 250 g/ha (galium [7]; 250 g ai/ha, postemergence, read-out: Plant response rating (0 to 100), Galium) of the same compound?
A: Its pest or weed control at 250 g/ha is 90%.

Q: What about the pest or weed control at 62 g/ha (galium [7]; Postemergence, 62 g ai/ha, scale 0 to 100 (0 no effect, 100 complete control), 13 to 15 days, read-out: Plant response rating, Galium) of the same compound?
A: The pest or weed control at 62 g/ha was 65%.

Q: What about the pest or weed control at 31 g/ha (chickweed; 31 g ai/ha, postemergence, visual rating, scale 0 to 100 (0 no effect, 100 complete control), 13 to 15 days, read-out: Chickweed plant response rating) of the same compound?
A: Its pest or weed control at 31 g/ha is 50%.

Q: What about the pest or weed control at 125 g/ha (chickweed; 125 g ai/ha, postemergence, visual rating, scale 0 to 100 (0 no effect, 100 complete control), read-out: Plant response rating, Chickweed) of the same compound?
A: Its pest or weed control at 125 g/ha is 70%.

Q: And the pest or weed control at 250 g/ha (chickweed; 250 g ai/ha, postemergence, read-out: Plant response rating (0 to 100), Chickweed)?
A: The pest or weed control at 250 g/ha was 85%.

Q: What about the pest or weed control at 62 g/ha (chickweed; Postemergence, 62 g ai/ha, scale 0 to 100 (0 no effect, 100 complete control), 13 to 15 days, read-out: Plant response rating, Chickweed) of the same compound?
A: The pest or weed control at 62 g/ha was 70%.
